These results are taken from ChEMBL document CHEMBL1134673, “Modeling of poly(ADP-ribose)polymerase (PARP) inhibitors. Docking of ligands and quantitative structure-activity relationship analysis” (J Med Chem, 2001).

As a reminder, the IC50 is the concentration that inhibits the measured activity by half. Higher therefore signals weaker potency in that assay.

Poly [ADP-ribose] polymerase 1, sequence (P09874 whole entry): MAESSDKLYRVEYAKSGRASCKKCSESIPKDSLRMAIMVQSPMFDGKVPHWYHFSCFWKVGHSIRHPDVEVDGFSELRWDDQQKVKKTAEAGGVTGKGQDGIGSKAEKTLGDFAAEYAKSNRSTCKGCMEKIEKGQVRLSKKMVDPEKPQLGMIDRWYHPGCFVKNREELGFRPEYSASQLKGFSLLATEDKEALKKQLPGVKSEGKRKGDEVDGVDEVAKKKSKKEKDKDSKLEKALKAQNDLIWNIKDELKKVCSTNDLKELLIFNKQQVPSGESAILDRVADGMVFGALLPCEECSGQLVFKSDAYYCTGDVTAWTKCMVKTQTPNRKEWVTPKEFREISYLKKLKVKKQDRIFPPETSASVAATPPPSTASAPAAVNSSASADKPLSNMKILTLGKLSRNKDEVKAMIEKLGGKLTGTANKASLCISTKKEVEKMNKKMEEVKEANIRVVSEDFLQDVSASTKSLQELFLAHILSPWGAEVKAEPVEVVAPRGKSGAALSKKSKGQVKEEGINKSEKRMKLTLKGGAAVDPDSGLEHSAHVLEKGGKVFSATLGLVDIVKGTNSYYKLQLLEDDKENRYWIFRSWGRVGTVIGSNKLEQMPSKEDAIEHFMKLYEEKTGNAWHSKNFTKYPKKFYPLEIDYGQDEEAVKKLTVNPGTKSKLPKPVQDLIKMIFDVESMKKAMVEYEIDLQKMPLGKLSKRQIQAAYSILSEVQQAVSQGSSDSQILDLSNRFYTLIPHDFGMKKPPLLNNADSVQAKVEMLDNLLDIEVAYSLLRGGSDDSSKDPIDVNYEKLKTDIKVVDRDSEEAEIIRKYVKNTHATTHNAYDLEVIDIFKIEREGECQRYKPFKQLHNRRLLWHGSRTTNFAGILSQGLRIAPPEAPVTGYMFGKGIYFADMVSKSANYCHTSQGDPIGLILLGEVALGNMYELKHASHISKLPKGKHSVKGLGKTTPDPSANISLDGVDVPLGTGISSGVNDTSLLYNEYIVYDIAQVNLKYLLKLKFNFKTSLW

One assay addresses Poly [ADP-ribose] polymerase 1 (Homo sapiens, UniProt P09874).
Description: The compound was tested for poly(ADP-ribose)-polymerase (PARP) inhibition
Regarding `NC(=O)c1ccc(F)cc1`, the concentration for half-maximal inhibition (IC50) is 200 µM.

`O=c1[nH]c2ccccc2c2ccccc12` yielded an IC50 of 0.3 µM.

The compound `O=c1[nH]c2ccc([N+](=O)[O-])cc2c2ccccc12` displayed a half-maximal inhibitory concentration (IC50) of 0.35 µM.

Compound `O=c1[nH]cnc2ccccc12` [QUINAZOLINONE] had an IC50 of 9.5 µM.

`NC(=O)c1ccccc1` [BENZAMIDE] had an IC50 of 22 µM.

In turn, `NC(=O)c1ccc(O)cc1` returned an IC50 of 280 µM.

In the case of `CN(C)c1cccc(C(N)=O)c1`, half-maximal inhibition (IC50) was put at 120 µM.

As for `NC(=O)c1cccc(F)c1`, the IC50 came to 20 µM.

`NC(=O)c1ccc(Br)cc1` displayed an IC50 of 2200 µM.

`Cc1cccc(C(N)=O)c1` showed an IC50 of 19 µM.

Compound `O=c1[nH]ncc2ccccc12` [PHTHALAZINONE] returned an IC50 of 12 µM.

As to `NC(=O)c1cccc([N+](=O)[O-])c1`, the IC50 was found to be 160 µM.

In turn, `NC(=O)c1ccc(Cl)cc1` gave an IC50 of 300 µM.

Take `NC(=O)c1ccc(N)cc1`: the 50% inhibitory concentration (IC50) stood at 1800 µM.

Consider `NC(=O)c1cccc(O)c1`, for which the half-inhibitory concentration (IC50) is 9.1 µM.

Target in a further assay: not listed separately
As to the kind of experiment: poly(ADP-ribose)-polymerase (PARP) inhibition.
Consider `COc1ccc(-c2nc(O)c3cccc(C)c3n2)cc1`, for which the IC50 is 0.19 µM.

As to `COc1cccc2c(O)nc(-c3ccc([N+](=O)[O-])cc3)nc12`, the IC50 was 0.85 µM.

`Nc1ccc(-c2nc(O)c3cccc(O)c3n2)cc1` returned an IC50 of 0.52 µM.

Consider `Cc1cccc2c(O)nc(-c3ccc(O)cc3)nc12`, for which the IC50 was determined as 0.22 µM.

Take `O=[N+]([O-])c1ccc(-c2nc(O)c3cccc(O)c3n2)cc1`: the IC50 was 0.23 µM.

The compound `COc1cccc2c(O)nc(-c3ccccc3)nc12` registered an IC50 of 4.2 µM.

Compound `Cc1cccc2c(O)nc(-c3ccc(N)cc3)nc12` yielded an IC50 of 0.44 µM.

Consider `COc1cccc2c(O)nc(-c3ccc(C#N)cc3)nc12`, for which the half-maximal inhibitory concentration (IC50) is 1.34 µM.

Compound `Cc1cccc2c(O)nc(-c3ccccc3)nc12` returned an IC50 of 0.87 µM.

Compound `Cc1cccc2c(O)nc(-c3ccc(C#N)cc3)nc12` yielded an IC50 of 0.27 µM.

In turn, `COc1cccc2c(O)nc(-c3ccc(C(F)(F)F)cc3)nc12` gave an IC50 of 39 µM.
